# Reference: patent US10214519B2, “Phosphatidylinositol 3-kinase inhibitors” (Gilead Sciences, Inc., priority 2016, dated 2019)
# Biological target: PI3Kβ (Homo sapiens (Human), UniProt P42338)
# Assay: PI3K isoform TR-FRET enzymatic assay (PI3Kβ)
# Type: biochemical
# Settings: 2× Km ATP, 30 minutes at 25° C.
# Experimental: The compounds of formula (I) were characterized for their enzymatic activity against the PI3K isoforms. The activities were measured using a time-resolved fluorescence resonance energy transfer (TR-FRET) assay. TR-FRET monitored the formation of 3,4,5-inositol triphosphate molecule that competed with fluorescently labeled PIP3 for binding to the GRP-1 pleckstrin homology domain protein.
# Class I PI3K isoforms were expressed and purified as heterodimeric recombinant proteins. All assay reagents and buffers for the TR-FRET assay were purchased from Millipore. […] The compounds were added to the assay solution and incubated for 30 minutes at 25° C. The reactions were terminated with a final concentration of 10 mM EDTA, 10 nM labeled-PIP3, and 35 nM Europium labeled GRP-1 detector protein before reading TR-FRET on an Envision plate reader (Ex: 340 nm; Em: 615/665 nm; 100 μs delay and 500 μs read window).
# The results were normalized based on positive (1 μM wortmanin) and negative (DMSO) controls, and the IC50 values for PI3K α, β, δ, and γ were calculated from the fit of the dose-response curves to a four-parameter equation.
# Sequence of PI3Kβ (P42338 whole entry, canonical isoform): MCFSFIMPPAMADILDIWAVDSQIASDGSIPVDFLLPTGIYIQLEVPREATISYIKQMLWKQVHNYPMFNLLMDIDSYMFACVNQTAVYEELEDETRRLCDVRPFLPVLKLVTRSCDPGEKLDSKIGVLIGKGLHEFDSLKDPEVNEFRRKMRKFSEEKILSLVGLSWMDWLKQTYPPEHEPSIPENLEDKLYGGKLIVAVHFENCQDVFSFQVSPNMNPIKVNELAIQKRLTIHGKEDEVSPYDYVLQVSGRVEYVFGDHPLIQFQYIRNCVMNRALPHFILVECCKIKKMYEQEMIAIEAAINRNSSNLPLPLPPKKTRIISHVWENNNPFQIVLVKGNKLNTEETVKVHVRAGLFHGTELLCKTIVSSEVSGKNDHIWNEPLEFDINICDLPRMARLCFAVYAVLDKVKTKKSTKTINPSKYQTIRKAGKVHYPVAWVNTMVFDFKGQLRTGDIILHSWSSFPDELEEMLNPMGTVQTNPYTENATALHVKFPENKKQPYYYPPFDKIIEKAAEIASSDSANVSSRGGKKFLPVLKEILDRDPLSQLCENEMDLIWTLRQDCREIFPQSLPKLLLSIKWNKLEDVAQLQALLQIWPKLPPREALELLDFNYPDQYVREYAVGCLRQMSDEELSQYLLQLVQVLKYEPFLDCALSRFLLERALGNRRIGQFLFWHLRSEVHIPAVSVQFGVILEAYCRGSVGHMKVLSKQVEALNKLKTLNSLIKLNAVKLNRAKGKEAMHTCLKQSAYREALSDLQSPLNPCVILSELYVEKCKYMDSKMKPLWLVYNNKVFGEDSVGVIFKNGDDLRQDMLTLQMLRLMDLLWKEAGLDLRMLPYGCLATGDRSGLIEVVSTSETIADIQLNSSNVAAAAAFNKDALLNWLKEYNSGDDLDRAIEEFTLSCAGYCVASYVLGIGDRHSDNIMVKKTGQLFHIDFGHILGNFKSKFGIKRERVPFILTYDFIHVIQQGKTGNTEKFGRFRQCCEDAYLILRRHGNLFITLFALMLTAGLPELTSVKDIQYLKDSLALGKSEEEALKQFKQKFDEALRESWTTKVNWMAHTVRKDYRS
# Sequence of PI3Kβ (P27986 whole entry partner, canonical isoform): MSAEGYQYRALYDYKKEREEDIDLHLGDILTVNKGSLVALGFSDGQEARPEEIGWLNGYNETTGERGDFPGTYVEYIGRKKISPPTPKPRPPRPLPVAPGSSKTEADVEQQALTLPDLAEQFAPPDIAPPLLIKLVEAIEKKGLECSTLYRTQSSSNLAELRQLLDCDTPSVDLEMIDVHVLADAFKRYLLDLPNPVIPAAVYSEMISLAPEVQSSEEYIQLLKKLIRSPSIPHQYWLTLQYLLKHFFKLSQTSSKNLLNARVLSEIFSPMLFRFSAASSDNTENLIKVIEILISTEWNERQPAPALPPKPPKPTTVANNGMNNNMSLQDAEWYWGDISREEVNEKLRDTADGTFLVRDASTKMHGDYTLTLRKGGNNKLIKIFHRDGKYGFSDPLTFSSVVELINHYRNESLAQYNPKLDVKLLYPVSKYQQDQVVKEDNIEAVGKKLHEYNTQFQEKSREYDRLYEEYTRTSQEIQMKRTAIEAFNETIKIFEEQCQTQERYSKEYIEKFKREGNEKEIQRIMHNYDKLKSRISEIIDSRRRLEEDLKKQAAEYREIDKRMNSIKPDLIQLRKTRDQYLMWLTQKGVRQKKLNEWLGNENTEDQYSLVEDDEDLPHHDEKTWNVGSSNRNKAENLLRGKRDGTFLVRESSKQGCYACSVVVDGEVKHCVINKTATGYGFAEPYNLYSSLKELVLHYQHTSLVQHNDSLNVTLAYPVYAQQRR
row,Structure (SMILES),IC50 [nM]
1,"Cc1nnc(-c2cc(N3CCOCC3)cc3c2ncn3-c2ccnc3cc(F)ccc23)[nH]1 [Example 22, 4-(1-(7-fluoroquinolin-4-yl)-4-(5-methyl-4H-1,2,4-triazol-3-yl)-1H-benzo[d]imidazol-6-yl)morpholine]",280
2,"Cc1nnc(-c2cc(N3CCOCC3)cc3c2nc(-c2cccnc2)n3-c2ccnc3c(Cl)cccc23)[nH]1 [Example 23, 4-(1-(8-chloroquinolin-4-yl)-4-(5-methyl-4H-1,2,4-triazol-3-yl)-2-(pyridin-3-yl)-1H-benzo[d]imidazol-6-yl)morpholine]",390
3,"c1ccc2c(-n3c(C4COC4)nc4c(-c5nnc[nH]5)cc(N5CCOCC5)cc43)ccnc2c1 [Example 24, 4-(2-(oxetan-3-yl)-1-(quinolin-4-yl)-4-(4H-1,2,4-triazol-3-yl)-1H-benzo[d]imidazol-6-yl)morpholine]",1500
4,"Cc1nnc(-c2cc(N3CCOCC3)cc3c2nc(-c2ccncc2)n3-c2ccnc3c(Cl)cccc23)[nH]1 [Example 25, 4-(1-(8-chloroquinolin-4-yl)-4-(5-methyl-4H-1,2,4-triazol-3-yl)-2-(pyridin-4-yl)-1H-benzo[d]imidazol-6-yl)morpholine]",2200
5,"CCc1nc2c(-c3nnc(C)[nH]3)cc(N3CCOCC3)cc2n1-c1c(Cl)cnc2c(Cl)cccc12 [Example 26, 4-[3-(3,8-dichloroquinolin-4-yl)-2-ethyl-7-(5-methyl-4H-1,2,4-triazol-3-yl)benzimidazol-5-yl]morpholine]",22
6,"Cc1nc2c(-c3nnc[nH]3)cc(N3CCOCC3)cc2n1-c1c(Cl)cnc2c(F)cccc12 [Example 27, 4-[3-(3-chloro-8-fluoroquinolin-4-yl)-2-methyl-7-(4H-1,2,4-triazol-3-yl)benzimidazol-5-yl]morpholine]",56
7,"Fc1ccc(F)c2c(-n3cnc4c(-c5nnc[nH]5)cc(N5CCOCC5)cc43)ccnc12 [Example 28, 4-(1-(5,8-difluoroquinolin-4-yl)-4-(4H-1,2,4-triazol-3-yl)-1H-benzo[d]imidazol-6-yl)morpholine]",3
8,"Fc1ccc2c(-n3cnc4c(-c5nnc[nH]5)cc(N5CCOCC5)cc43)ccnc2c1Cl [Example 29, 4-(1-(8-chloro-7-fluoroquinolin-4-yl)-4-(4H-1,2,4-triazol-3-yl)-1H-benzo[d]imidazol-6-yl)morpholine]",7
9,"Clc1cccc2c(-n3c(C4CCC4)nc4c(-c5nnc[nH]5)cc(N5CCOCC5)cc43)ccnc12 [Example 30, 4-(1-(8-chloroquinolin-4-yl)-2-cyclobutyl-4-(4H-1,2,4-triazol-3-yl)-1H-benzo[d]imidazol-6-yl)morpholine]",8
10,"Fc1ccc2c(-n3c(CC4CC4)nc4c(-c5nnc[nH]5)cc(N5CCOCC5)cc43)ccnc2c1Cl [Example 31, 4-(1-(8-chloro-7-fluoroquinolin-4-yl)-2-(cyclopropylmethyl)-4-(4H-1,2,4-triazol-3-yl)-1H-benzo[d]imidazol-6-yl)morpholine]",9
11,"Clc1cccc2c(-n3c(CC4CC4)nc4c(-c5nnc[nH]5)cc(N5CCOCC5)cc43)ccnc12 [Example 32, 4-(1-(8-chloroquinolin-4-yl)-2-(cyclopropylmethyl)-4-(4H-1,2,4-triazol-3-yl)-1H-benzo[d]imidazol-6-yl)morpholine]",9
12,"CCCc1nc2c(-c3nnc[nH]3)cc(N3CCOCC3)cc2n1-c1ccnc2c(Cl)cc(F)cc12 [Example 33, 4-(1-(8-chloro-6-fluoroquinolin-4-yl)-2-propyl-4-(4H-1,2,4-triazol-3-yl)-1H-benzo[d]imidazol-6-yl)morpholine]",10
13,"CCCc1nc2c(-c3nnc[nH]3)cc(N3CCOCC3)cc2n1-c1ccnc2c(Cl)c(F)ccc12 [Example 34, 4-(1-(8-chloro-7-fluoroquinolin-4-yl)-2-propyl-4-(4H-1,2,4-triazol-3-yl)-1H-benzo[d]imidazol-6-yl)morpholine]",10
14,"Cc1nc2c(-c3nnc[nH]3)cc(N3CCOCC3)cc2n1-c1ccnc2c(Cl)cc(F)cc12 [Example 35, 4-(1-(8-chloro-6-fluoroquinolin-4-yl)-2-methyl-4-(4H-1,2,4-triazol-3-yl)-1H-benzo[d]imidazol-6-yl)morpholine]",11
15,"CC(C)c1nc2c(-c3nnc[nH]3)cc(N3CCOCC3)cc2n1-c1ccnc2c(Cl)cccc12 [Example 36, 4-(1-(8-chloroquinolin-4-yl)-2-isopropyl-4-(4H-1,2,4-triazol-3-yl)-1H-benzo[d]imidazol-6-yl)morpholine]",11
16,"CCCc1nc2c(-c3nnc[nH]3)cc(N3CCOCC3)cc2n1-c1ccnc2c(C)ccc(F)c12 [Example 37, 4-(1-(5-fluoro-8-methylquinolin-4-yl)-2-propyl-4-(4H-1,2,4-triazol-3-yl)-1H-benzo[d]imidazol-6-yl)morpholine]",11

row,Structure (SMILES),IC50 [nM]
1,"Fc1ccc2c(-n3c(C4CC4)nc4c(-c5nnc[nH]5)cc(N5CCOCC5)cc43)ccnc2c1Cl [Example 38, 4-(1-(8-chloro-7-fluoroquinolin-4-yl)-2-cyclopropyl-4-(4H-1,2,4-triazol-3-yl)-1H-benzo[d]imidazol-6-yl)morpholine]",11
2,"Cc1nc2c(-c3nnc[nH]3)cc(N3CCOCC3)cc2n1-c1ccnc2c(Cl)c(F)ccc12 [Example 39, 4-(1-(8-chloro-7-fluoroquinolin-4-yl)-2-methyl-4-(4H-1,2,4-triazol-3-yl)-1H-benzo[d]imidazol-6-yl)morpholine]",11
3,"Cc1nnc(-c2cc(N3CCOCC3)cc3c2ncn3-c2ccnc3c(Cl)c(F)ccc23)[nH]1 [Example 40, 4-(1-(8-chloro-7-fluoroquinolin-4-yl)-4-(5-methyl-4H-1,2,4-triazol-3-yl)-1H-benzo[d]imidazol-6-yl)morpholine]",22
4,"CCCc1nc2c(-c3nnc[nH]3)cc(N3CCOCC3)cc2n1-c1ccnc2ccccc12 [Example 41, 4-(2-propyl-1-(quinolin-4-yl)-4-(4H-1,2,4-triazol-3-yl)-1H-benzo[d]imidazol-6-yl)morpholine]",21
5,"COCCc1nc2c(-c3nnc[nH]3)cc(N3CCOCC3)cc2n1-c1ccnc2c(F)cccc12 [Example 42, 4-(1-(8-fluoroquinolin-4-yl)-2-(2-methoxyethyl)-4-(4H-1,2,4-triazol-3-yl)-1H-benzo[d]imidazol-6-yl)morpholine]",20
6,"CCCc1nc2c(-c3nnc(C)[nH]3)cc(N3CCOCC3)cc2n1-c1ccnc2c(C)ccc(F)c12 [Example 43, 4-(1-(5-fluoro-8-methylquinolin-4-yl)-4-(5-methyl-4H-1,2,4-triazol-3-yl)-2-propyl-1H-benzo[d]imidazol-6-yl)morpholine]",20
7,"Cc1nnc(-c2cc(N3CCOCC3)cc3c2ncn3-c2ccnc3c(F)ccc(F)c23)[nH]1 [Example 44, 4-(1-(5,8-difluoroquinolin-4-yl)-4-(5-methyl-4H-1,2,4-triazol-3-yl)-1H-benzo[d]imidazol-6-yl)morpholine]",19
8,"CCCc1nc2c(-c3nnc[nH]3)cc(N3CCOCC3)cc2n1-c1ccnc2c(F)ccc(F)c12 [Example 45, 4-(1-(5,8-difluoroquinolin-4-yl)-2-propyl-4-(4H-1,2,4-triazol-3-yl)-1H-benzo[d]imidazol-6-yl)morpholine]",19
9,"CCCc1nc2c(-c3nnc(C)[nH]3)cc(N3CCOCC3)cc2n1-c1ccnc2c(Cl)cccc12 [Example 46, 4-(1-(8-chloroquinolin-4-yl)-4-(5-methyl-4H-1,2,4-triazol-3-yl)-2-propyl-1H-benzo[d]imidazol-6-yl)morpholine]",19
10,"Cc1nnc(-c2cc(N3CCOCC3)cc3c2nc(C2CC2)n3-c2ccnc3c(Cl)cccc23)[nH]1 [Example 47, 4-(1-(8-chloroquinolin-4-yl)-2-cyclopropyl-4-(5-methyl-4H-1,2,4-triazol-3-yl)-1H-benzo[d]imidazol-6-yl)morpholine]",18
11,"CCCc1nc2c(-c3nnc[nH]3)cc(N3CCOCC3)cc2n1-c1ccnc2c(Cl)ccc(F)c12 [Example 48, 4-(1-(8-chloro-5-fluoroquinolin-4-yl)-2-propyl-4-(4H-1,2,4-triazol-3-yl)-1H-benzo[d]imidazol-6-yl)morpholine]",18
12,"CCCc1nc2c(-c3nnc[nH]3)cc(N3CCOCC3)cc2n1-c1ccnc2c(F)c(F)ccc12 [Example 49, 4-(1-(7,8-difluoroquinolin-4-yl)-2-propyl-4-(4H-1,2,4-triazol-3-yl)-1H-benzo[d]imidazol-6-yl)morpholine]",18
13,"CC(C)Cc1nc2c(-c3nnc[nH]3)cc(N3CCOCC3)cc2n1-c1ccnc2c(Cl)cccc12 [Example 50, 4-(1-(8-chloroquinolin-4-yl)-2-isobutyl-4-(4H-1,2,4-triazol-3-yl)-1H-benzo[d]imidazol-6-yl)morpholine]",16
14,"Cc1nnc(-c2cc(N3CCOCC3)cc3c2nc(C)n3-c2ccnc3c(F)ccc(F)c23)[nH]1 [Example 51, 4-(1-(5,8-difluoroquinolin-4-yl)-2-methyl-4-(5-methyl-4H-1,2,4-triazol-3-yl)-1H-benzo[d]imidazol-6-yl)morpholine]",15
15,"Cc1nnc(-c2cc(N3CCOCC3)cc3c2nc(C)n3-c2ccnc3c(Cl)c(F)ccc23)[nH]1 [Example 52, 4-(1-(8-chloro-7-fluoroquinolin-4-yl)-2-methyl-4-(5-methyl-4H-1,2,4-triazol-3-yl)-1H-benzo[d]imidazol-6-yl)morpholine]",15
16,"Fc1ccc2c(-n3cnc4c(-c5nnc[nH]5)cc(N5CCOCC5)cc43)ccnc2c1 [Example 53, 4-(l-(7-fluoroquinolin-4-yl)-4-(4H-1,2,4-triazol-3-yl)-1H-benzo[d]imidazol-6-yl)morpholine]",15
